These results are taken from US10280404B2, “Optimized HCV full-length infectious cell culture systems and applications thereof” (Hvidore Hospital, priority 2014, dated 2019).

“Also recorded” adds a separate entry of the source.

Series [1] deals with Huh7.5 cells. Briefly: HCV infectivity titers (FFU assay) of culture supernatant after RNA transfection or viral passage. In kind it is cell-based, human. Here is the method:
Transfection and infection of Huh7.5 cells. The human hepatoma cell line Huh7.5 was maintained as described. Cells were plated in 6-well plates (˜3.5×10^5 cells/well) ˜24 hours before RNA transfection or viral infection, reaching 80-90% confluence at the time of inoculation. RNA transfection and viral infection were performed as previously described. The transfected or infected cultures were incubated for ˜16 hours, and sub-cultured every 2-3 days; culture supernatant was collected, filtered (0.45 μm), and stored at […] until analysis.
Analysis of HCV in cultured cells. […] Percentage of HCV antigen positive cells in the culture was determined with fluorescence microscopy. Culture supernatants were collected when 80% of cells were HCV antigen positive (peak infection) and HCV infectivity titers were determined by an FFU assay using a combination of C7-50 and 9E10, as previously described. […] The number of FFU was automatically counted with an ImmunoSpot Series 5 UV Analyzer with customized software (CTL Europe GmbH). HCV RNA titers in the culture supernatant were determined using real time RT-PCR TaqMan method. Core antigen levels were determined by the Architect HCV Ag detection system (Abbott) following manufacturer's instructions. Whole ORF sequences of passaged viruses were determined using procedures previously described for the sequencing of H77C and JFH1 genomes.

The subject of series [2] is CD81-deficient S29 cells. Briefly: Single-cycle production assay: intra- and extracellular infectivity titers and core levels. In kind it is cell-based, human. The note with it: 48 hours after transfection. The protocol: Determination of intra- and extra-cellular HCV core levels and infectivity titers. For single-cycle production assays, an Huh7-derived CD-81 deficient cell line S29 was transfected with HCV RNA and intracellular HCV core levels were measured 4 and 48 hours post transfection. Additionally, intra- and extra-cellular HCV infectivity titers, as well as extracellular HCV core concentration, were determined 48 hours post transfection, as described previously. Briefly, for this assay, S29 cells were seeded in 6 well plates (˜3.5×10^5 cells/well) 24 hours prior to transfection. Plasmids of the different full-length clones were digested with XbaI (New England Biolabs, NEB) for linearization and treated with Mung Bean nuclease (NEB). HCV RNA was generated by in vitro transcription using T7 RNA polymerase (Promega). […] RNA was quantified using spectrophotometry (NanoDrop) and 10 μg of RNA was used for transfection with Lipofectamine 2000 (Invitrogen). […] Both, intra- and extra-cellular core antigen levels were determined by the Architect HCV Ag detection system (Abbott) following the manufacturer's instructions. […] Specific dilutions were analyzed in triplicate for HCV infectivity titers, and the FFU was counted using an ImmunoSpot Series 5 UV Analyzer with customized software (CTL Europe GmbH), and confirmed by manual count. […]

Regarding “HCV1_LSGF/S399F/TNm/4m: full-length HCV-1 recombinant with LSGF/S399F/TNm plus A970T/I1312V/C2419R/A2919T”, the “day at which HCV infectivity titers were first detectable” value in series [1] (after transfection of Huh7.5 cells, detection limit 10^2.4 FFU/ml) was 4 days. Moreover, the “infectivity titers compared with HCV1cc” value in series [1] (transfected Huh7.5 cells) is recorded as “slightly lower than those of HCV1cc; also recorded: close to those of HCV1cc”. The extracellular infectivity titers entry in series [2] was “comparable to those of HCV1cc”.
